{
  "source": "patent US20250212873A1",
  "about": "“VOLATILE HDAC INHIBITORS FOR THERAPEUTIC AND PLANT APPLICATIONS” (The Regents of the University of California, priority 2022, published 2025)",
  "key": {"[1]": {"tested_on": "A. thaliana plants (Col-0)", "assay": "Flowering assay", "format": "in vivo, Arabidopsis thaliana", "conditions": "vapors from 0.1% solution", "text": "Dramatic effects of VOCs have been seen in the seedling stage. The effects on with flowering timing were observed, since the process involves numerous changes in gene expression and therefore potentially susceptible to HDAC inhibitory volatiles. Mutants in HDACs like HDA5 show delayed flowering due to upregulation of flowering repressor genes like FLC and MAF1 (M. Luo et al., Plant J 82, 925-936 (2015)). Conversely, mutants in HDA9lead to early flowering due to increased expression of FLOWERING LOCUS T (FT) and AGAMOUS-LIKE 19 (AGL19) (M. J. Kang, et al., New Phytol 206, 281-294 (2015)). We placed 3 weeks old A. thaliana plants in the glass chambers and exposed them to the vapors of two of the VOCs, diacetyl and α-angelica lactone volatilizing from 0.1% solutions in the glass chamber.\nTwenty-seven day old A. thaliana plants (Col-0), that had been transplanted at day 7 to soil, were placed in 10-gallon glass aquarium as chamber along with a petridish containing 2 ml of chemical dissolved in PO or PO alone were placed at the other side of the container. Plants were exposed to odors until all plants began to flower, with odor cartridges being replaced daily. Signs of flower buds opening were counted as plant flowering. One-way analysis of Variance (ANOVA) between groups was performed for plant exposure quantitative data using Graph Pad Prism 9."}, "[2]": {"tested_on": "Class I and Class II HDACs", "assay": "In vitro assays with purified human Class I and II HDACs (panel statements)", "format": "biochemical", "conditions": "15 mM", "method": "Presented are data for selected compounds that act as Histone deacetylase inhibitors in vitro or HDAC inhibitors. 26 compounds were screened against purified human HDACs.\nHDAC activity of class I HDACs (HDAC1 and 3) was measured with the fluorometric HDAC Activity Assay kit: HDAC1 (10011563, Cayman Chemical, Ann Arbor, MI) and HDAC3 (50073 BPS Bioscience, San Diego, CA), according to the manufacturer's instructions. HDAC activity of class II HDACs (HDAC4 and HDAC6) was measured with the fluorometric HDAC Activity Assay kit: HDAC4, […] (50064 and 50076, BPS Bioscience, San Diego, CA), according to the manufacturer's instructions. All compounds were tested in single dose duplicate mode at 15 mM concentrations in 1% DMSO, based on the IC50 of 2,3-butanedione established in earlier work. Due to interference, concentrations of >30 mM were not used in the IC50 calculation. To account for any interference at lower concentrations, all baseline measurements of blank wells (no HDAC enzyme) were performed and subtracted with the various concentrations of 2,3-butanedione.\nDiacetyl and 3 structurally related VOCs were evaluated using in vitro assay kits for measuring activity of four purified HDACs. Of the four VOCs), each has a different functional group, two are natural in origin, previously detected from microbes that are known to be present in soil (M. C. Lemfack et al., Nucleic Acids Res 46, D1261-D1265 (2018); and R. H. Cagan, W. N. Zeiger, Proc. Nat. Acad. Sci. U.S.A. 75, 4679-4683 (1978)) and two that are not (α-angelica lactone and ethyl pyruvate). […] All 4 VOCs inhibited both Class I HDACs (L. L. Walling, The Myriad Plant Responses to Herbivores. J Plant Growth Regul 19, 195-216 (2000); and M. Heil, R. Karban, Trends Ecol Evol 25, 137-144 (2010)) and the Class II HDAC6 with differences in degree (FIG. 2A,B)."}, "[3]": {"tested_on": "Arabidopsis thaliana seedlings", "assay": "Odor Exposure assay, Arabidopsis thaliana seedlings (root and leaf development)", "format": "in vivo", "conditions": "for root growth: 3.5-day exposure; for root growth / lateral root growth (number of lateral roots) / leaf development (number of large / true leaves): headspace of 1% v/v in Paraffin oil; for lateral root growth (number of lateral roots) / leaf development (number of large / true leaves) / root growth (primary root length): 7-day exposure; for root growth (primary root length): headspace of solution in Paraffin oil", "method": "The Odor Exposure assay consists of controlled exposure of volatile odor compounds to model plant Arabidopsis within enclosed aquariums and similar growth conditions (23° C. with a 12-hour light/dark cycle). For Arabidopsis, seedlings were aligned on agar plates for growth after a 4-day cold treatment process. The agar plates with seedlings were then placed in enclosed aquariums with moist paper towels soaked in 10 ml of DI water for humidity. The plates were placed along the wall, approximately 12 cm from odor dispensers which resided in the center of the glass tank.\nThe test compound odor dispensers, consisting of (60×15 mm) polystyrene Petri dishes containing 2 ml of 1% v/v in PO, are replaced at the 3.5, 5, and 6-day time mark during the 7-day experiment. Root growth is marked during each time mark and the plates were imaged. The plants are to be collected after the 7-day exposure, photographed, and the leaves/roots carefully dissected separated, flash frozen in liquid nitrogen, and preserved for future sequencing. Root growth is measured using ImageJ.\nIn order to study the physiological effects of long-term exposure to microbial volatiles the model system Arabidopsis was exposed for […] to diacetyl, a volatile chemical emitted by fermentation by yeast or microbial degradation in the soil associated with roots (R. J. Morcillo et al., EMBO J 39, e102602 (2020); M. A. Farag, et al., Phytochemistry 67, 2262-2268 (2006); and C. M. Ryu et al., P Natl Acad Sci USA 100, 4927-4932 (2003). The Odor Exposure assay consisted of controlled exposure of volatile HDAC inhibiting compounds to model plant Arabidopsis within enclosed aquariums and similar growth conditions. The test compound odor cartridges, consisting of 60×15 mm polystyrene Petri dishes containing 2 ml of indicated concentration in Paraffin Oil, were replaced at the 3.5, 5, and 6-day time mark during the 7-day experiment (FIG. 1A, left). In separate experiments the weight loss from the odor cartridges over time was measured and used it to calculate the concentration of diacetyl in the glass chambers in parts per million (FIG. 1A, right).\nIn order to directly evaluate whether exposure to vapors of the four HDAC-inhibitory VOCs affect root development, we performed a set of experiments using A. thaliana seedlings as before. Solutions for each of the four chemicals on a small petri dish were placed away from the seedlings growing in agar plate and enclosed in glass tank. The Root tips were marked at specified days post treatment start and photographs analyzed. The plants were collected after the 7-day exposure, photographed, and the roots were separated. Detailed measurements were made from the photos using ImageJ and the root length and numbers of lateral roots quantified at day 3.5 and day 7 after start if the treatment (FIG. 1B).\nThe Odor Exposure assay consists of controlled exposure of volatile odor compounds to model plant Arabidopsis within enclosed aquariums and similar growth conditions (23° C. with a 12-hour light/dark cycle). The test compound odor cartridges, consisting of (60×15 mm) polystyrene Petri dishes containing 2 ml of 1% v/v in paraffin oil (PO), were replaced at the 3.5, 5, and 6-day time mark during the 7-day experiment. Root growth was marked during each time point and the plates were imaged. Numbers of true leaves were also counted. The plants are to be collected after the 7-day exposure, photographed, and the leaves/roots carefully dissected separated, flash frozen in liquid nitrogen, and preserved for future sequencing. Root growth is measured using ImageJ."}, "[4]": {"tested_on": "histone deacetylase enzymes (HDACs)", "conditions": "literature (Shimazu et al.); cited from earlier work"}, "[5]": {"tested_on": "bacteria and fungi", "conditions": "literature (Debebe et al.); cited from earlier work"}, "[6]": {"tested_on": "SH-SY5Y Cancer cell line", "assay": "Cancer cell viability assay, SH-SY5Y", "format": "cell-based", "conditions": "33 micro-molar", "method": "(§1) Cells were maintained in a 37° C. incubator with 5% CO2 throughout the experiment. Compound stocks were dissolved in 10% DMSO, but final concentrations were made fresh in complete media as needed. 10% DMSO solvent was used as control in complete media. Cells were seeded onto 12-well plates and allowed 12-24 hours until treatment began to allow cells to adhere to wells. This was followed by minimum 5-day treatment of compounds, changing the media with treatment every 48 hours. Cell lines A549, PC3, and SK-MEL-5 were seeded at 8000 cells/well which would provide 80-100% confluency after 6-day growth. SH-SY5Y was seeded at 8000 cells/well then 16,000 cells/well due to slower growth and given at least 10 days for sufficient growth. After allotted growth times, cell counts were performed via Countess™ automated cell counter. All assays were completed with a minimum of triplicate replicates for all conditions and analyzed through GraphPad Prism One-way ANOVA for significance."}, "[7]": {"tested_on": "PC3 Cancer cell line", "assay": "Cancer cell viability assay, PC3", "format": "cell-based", "conditions": "33 uM, triplicates", "method": "as §1"}, "[8]": {"tested_on": "A. thaliana plants (Col-0)", "assay": "Weed killing assay", "format": "in vivo, Arabidopsis thaliana", "conditions": "1% (volume/volume) in PO, 7 days vapor exposure, 4 weeks recovery", "text": "Since large scale changes in gene expression occur it is presumed that higher doses of some of the compounds could negatively affect some plants, even causing death. Since Arabidopsis thaliana is also considered a type of weed and goes by the common name Thale cress, it was used as a model to test the weed killing potential at higher doses. In order to evaluate the activity of some of these volatiles in plant killing twenty-seven day old A. thaliana plants (Col-0), that had been transplanted at day 7 to soil, were placed in 10-gallon glass aquarium as chamber along with a petridish containing 2 ml of chemical dissolved in PO at 1% (volume/volume) or PO alone were placed at the other side of the container. Plants were exposed to odor vapors for 7 days and observed for death.\nTwenty-seven day old A. thaliana plants (Col-0), that had been transplanted at day 7 to soil, were placed in 10-gallon glass aquarium as chamber along with a petridish containing 2 ml of chemical dissolved in PO at 1% (volume/volume) or PO alone were placed at the other side of the container. Plants were exposed to odor vapors for 7 days and observed for death."}, "[9]": {"conditions": "listed as Alpha angelica lactone"}},
  "note": "“Also recorded” adds a separate entry of the source. Structures can show the parent of a compound that is named as a salt.",
  "data": [
    {"smiles": "CC1=CCC(=O)O1", "note": "[alpha angelica lactone]", "values": [
      {"measurement": "delay in flowering (in words)", "setting": "[1]", "value": "approximately a week"},
      {"measurement": "inhibition of Class II HDACs compared with Class I", "setting": "[2]", "value": "inhibits only Class 2 HDACs strongly"},
      {"measurement": "inhibition of Class II HDACs compared with Class I", "setting": "[2]; listed as α-angelica lactone", "value": "inhibited Class II HDACs more strongly than Class I"},
      {"measurement": "root growth", "setting": "[3]", "value": "significant root growth inhibition"},
      {"measurement": "lateral root growth (number of lateral roots)", "setting": "[3]; [9]", "value": "significant phenotypic changes; also recorded: promoted lateral root growth"},
      {"measurement": "leaf development (number of large / true leaves)", "setting": "[3]; [9]", "value": "significant phenotypic changes"},
      {"measurement": "leaf development (number of large / true leaves)", "setting": "[3]; listed as a-angelica lactone", "value": "significant decreases"},
      {"measurement": "leaf development (number of large / true leaves)", "setting": "[3]; listed as α-Angelica lactone", "value": "changes in the number of true leaf development/growth"}
    ]},
    {"smiles": "CC(O)CC(=O)O", "note": "(stereo not drawn) [β-hydroxybutyrate]", "values": [
      {"measurement": "inhibition of histone deacetylase enzymes (HDACs)", "setting": "[4]", "value": "known inhibitor"}
    ]},
    {"smiles": "CCC(=O)C(=O)CC", "note": "[3,4-hexanedione]", "values": [
      {"measurement": "lateral root growth (number of lateral roots)", "setting": "[3]", "value": "significant phenotypic changes; also recorded: promoted lateral root growth"},
      {"measurement": "leaf development (number of large / true leaves)", "setting": "[3]", "value": "changes in the number of true leaf development/growth; also recorded: significant increase; also recorded: significant phenotypic changes; also recorded: The trend for the compounds were to inhibit leave development, except for 3,4-hexanedione"},
      {"measurement": "root growth (primary root length)", "setting": "[3]", "value": "all the compounds except 3,4-hexanedione demonstrated significant root growth inhibition"}
    ]},
    {"smiles": "CCOC(=O)C(C)=O", "note": "[ethyl pyruvate]", "values": [
      {"measurement": "antimicrobial action on bacteria and fungi", "setting": "[5]", "value": "potent antimicrobial"},
      {"measurement": "changes in proliferation, SH-SY5Y", "setting": "[6]", "value": "Significant changes in proliferations were noted only for 33 micro molar 2,3-butanedione treatment"},
      {"measurement": "root growth", "setting": "[3]", "value": "significant root growth inhibition"},
      {"measurement": "lateral root growth (number of lateral roots)", "setting": "[3]", "value": "inhibition; also recorded: significant phenotypic changes"},
      {"measurement": "lateral root growth (number of lateral roots)", "setting": "[3]; listed as Ethyl pyruvate", "value": "inhibited"},
      {"measurement": "root growth (primary root length)", "setting": "[3]", "value": "inhibited"},
      {"measurement": "changes in proliferation, PC3", "setting": "[7]", "value": "No Significant changes in proliferations"}
    ]},
    {"smiles": "CCCOC=O", "note": "[propyl formate]", "values": [
      {"measurement": "plants killed (dead)", "setting": "[8]", "value": "7 of 8"},
      {"measurement": "changes in proliferation, SH-SY5Y", "setting": "[6]", "value": "Significant changes in proliferations were noted only for 33 micro molar 2,3-butanedione treatment"},
      {"measurement": "changes in proliferation, PC3", "setting": "[7]", "value": "No Significant changes in proliferations"}
    ]}
  ]
}
